Counter-ions that a name gives are not always drawn.
Key:
[1] = Cell viability for BIA and analogues, HT1080 cell line; type: cell-based; conditions: human, HT1080 fibrosarcoma cells; for viability at 5 µM: HT1080, 5 uM; for viability at 10 µM: HT1080, 10 uM
Description: HT1080 MDA-MB-231, SKBR3 and MCF7 cell lines were cultured in a 37° C., 5% CO2 incubator in a medium with 10% Fetal Bovine Serum, 1% penicillin and streptomycin (100 U) added to DMEM.
(§1) The compound prepared in Example 15 was treated with HT1080 fibrosarcoma cell line at 5 μM and 10 μM and cell viability was measured. In addition, the compound prepared in Example 15 on the DU145 prostate cancer cell line was treated with 10 μM, 20 μM, and 30 μM and cell viability was measured (see Table 2, Table 3).

[2] = Cell viability for BIA and analogues, DU145 cell line; type: cell-based; conditions: human; for viability at 10 µM: DU145, 10 uM; for viability at 20 µM: DU145, 20 uM; for viability: DU145, 50 rpm
Description: as §1

SMILES	viability at 5 µM [1]	viability at 10 µM [1]	viability at 10 µM [2]	viability at 20 µM [2]	viability [2]
Nc1ccccc1C(=O)/C=C/c1ccc2ccccc2c1 [GM-90225, (E)-1-(2-aminophenyl)-3-(naphthalen-2-yl)prop-2-en-1-one]	70.5%	43.5%	87.4%	79.4%	71.2%
CCOc1ccc([N+](=O)[O-])cc1/C=C/C(=O)c1ccccc1N [GM-90229, (E)-1-(2-aminophenyl)-3-(2-ethoxy-5-nitrophenyl)prop-2-en-1-one]	64.4%	15.7%	53.1%	40.5%	21.1%
COc1cc(N)c(C(=O)/C=C/c2cccc(Br)c2)cc1OC [GM-90255, (E)-1-(2-amino-4,5-dimethoxyphenyl)-3-(3-bromophenyl)prop-2-en-1-one]	88.1%	33.4%	88.7%	70.2%	66.4%
COc1ccccc1C(=O)/C=C/c1cccc([N+](=O)[O-])c1 [GM-90134, (E)-1-(2-methoxyphenyl)-3-(3-nitrophenyl)prop-2-en-1-one]	99.1%	96.6%	31.5%	25.4%	22.8%
Nc1ccccc1C(=O)/C=C/c1ccccc1 [GM-90130, (E)-1-(2-aminophenyl)-3-phenylprop-2-en-1-one]	99.5%	31.7%	78.7%	79.4%	48.3%
CNC(=O)c1cccc(/C=C/C(=O)c2ccccc2N)c1 [GM-90300, (E)-3-(3-(2-aminophenyl)-3-oxoprop-1-en-1-yl)-N-methyl benzamide]	99.5%	23.4%	62.6%	58.5%	54.5%
Nc1ccccc1C(=O)/C=C/c1cccnc1 [GM-90285, (E)-1-(2-aminophenyl)-3-(pyridin-3-yl)prop-2-en-1-one]	71.5%	8.35%	83.5%	82.8%	78.8%
Nc1ccccc1C(=O)/C=C/c1cccc(Cl)c1 [GM-90317, (E)-1-(2-aminophenyl)-3-(3-chlorophenyl)prop-2-en-1-one]	46.8%	14.4%	32.4%	28.1%	11.9%
COc1cc(N)c(C(=O)/C=C/c2cc(O)cc(Br)c2)cc1OC [GM-90321, (E)-1-(2-amino-4,5-dimethoxyphenyl)-3-(3-bromo-5-hydroxyphenyl)prop-2-en-1-one]	61.2%	21.2%	83.6%	81.8%	84.8%
Nc1ccccc1C(=O)/C=C/c1ccc(F)cc1F [GM-90223, (E)-1-(2-aminophenyl)-3-(2,4-difluorophenyl)prop-2-en-1-one]	93.8%	86%	26.5%	26.3%	21.1%
Nc1ccccc1C(=O)/C=C/c1ccc([N+](=O)[O-])cc1 [GM-90133, (E)-1-(2-aminophenyl)-3-(4-nitrophenyl)prop-2-en-1-one]	101%	54.9%	50.5%	35.2%	26.8%
CCOc1ccc([N+](=O)[O-])cc1C(O)CC(=O)c1ccccc1N (centres unmarked) [GM-90230, 1-(2-aminophenyl)-3-(2-ethoxy-5-nitrophenyl)-3-hydroxypropan-1-one]	108%	98.8%	66.3%	29.1%	29.3%
COc1cc(N)c(C(=O)/C=C/c2cccc(C(F)(F)F)c2)cc1OC [GM-90320, (E)-1-(2-amino-4,5-dimethoxyphenyl)-3-(3-(trifluoromethyl)phenyl)prop-2-en-1-one]	94.5%	62.7%	89.1%	89.1%	82.4%
Nc1ccccc1-c1cc(-c2cccc(C(F)(F)F)c2)ncn1	99.6%	97.3%	95.3%	87.8%	74.8%
Nc1ccccc1-c1cc(-c2cccc(C(F)(F)F)c2)on1 [GM-90340, 2-(5-(3-(trifluoromethyl)phenyl)isoxazol-3-yl)aniline]	88.7%	80.2%	92.9%	89.3%	76.1%
Nc1ccccc1C(=O)/C=C/c1cccc(Br)c1 [GM-90132, (E)-1-(2-aminophenyl)-3-(3-bromophenyl)prop-2-en-1-one]	100%	30.9%	81.5%	71.2%	19.9%

SMILES	viability at 5 µM [1]	viability at 10 µM [1]	viability at 10 µM [2]	viability at 20 µM [2]	viability [2]
CC(C)(C)c1ccc(/C=C/C(=O)c2ccccc2N)cc1 [GM-90243, (E)-1-(2-aminophenyl)-3-(4-(tert-butyl)phenyl)prop-2-en-1-one]	66.8%	39.2%	31.8%	28.2%	14.3%
Nc1ccccc1C(=O)/C=C/c1ccc(C(F)(F)F)cc1 [GM-90226, (E)-1-(2-aminophenyl)-3-(4-(trifluoromethyl)phenyl)prop-2-en-1-one]	83.9%	15.4%	68.1%	46.8%	11.8%
N#Cc1cccc(/C=C/C(=O)c2ccccc2N)c1 [GM-90282, (E)-3-(3-(2-aminophenyl)-3-oxoprop-1-en-1-yl)benzonitrile]	12.2%	7.14%	72.9%	53.4%	9.57%
Nc1cccc(/C=C/C(=O)c2ccccc2N)c1 [GM-90315, (E)-1-(2-aminophenyl)-3-(3-aminophenyl)prop-2-en-1-one Hydrochloride]	41.1%	11.2%	98%	97.9%	88.9%
Nc1ccccc1C(=O)/C=C/c1cccc(C(F)(F)F)c1 [GM-90283, (E)-1-(2-aminophenyl)-3-(3-(trifluoromethyl)phenyl)prop-2-en-1-one]	18.1%	11.9%	59.9%	33.1%	22.9%
COc1cc(N)c(C(=O)/C=C/c2cccc(C#N)c2)cc1OC [GM-90319, (E)-3-(3-(2-amino-4,5-dimethoxyphenyl)-3-oxoprop-1-en-1-yl)benzonitrile]	46.6%	9.94%	110%	88.1%	85.8%
COc1ccc(C(=O)/C=C/c2cccc([N+](=O)[O-])c2)c(N)c1 [GM-90297, (E)-1-(2-amino-4-methoxyphenyl)-3-(3-nitrophenyl)prop-2-en-1-one]	93.3%	18.2%	85.7%	87.2%	83%
Cc1ccc(/C=C/C(=O)c2ccccc2N)cc1 [GM-90227, (E)-1-(2-aminophenyl)-3-(p-tolyl)prop-2-en-1-one]	108%	96.3%	43.3%	36.1%	28.2%
Cc1cccc(/C=C/C(=O)c2ccccc2N)c1 [GM-90284, (E)-1-(2-aminophenyl)-3-(m-tolyl)prop-2-en-1-one]	86.4%	18.8%	88.4%	81%	79%
COc1cccc(/C=C/C(=O)c2cc(OC)c(OC)cc2N)c1 [GM-90256, (E)-1-(2-amino-4,5-dimethoxyphenyl)-3-(3-methoxyphenyl)prop-2-en-1-one]	82.4%	46.3%	76.3%	60.2%	54.9%
Nc1ccccc1C(=O)/C=C/c1cc(F)c(O)c(F)c1 [GM-90316, (E)-1-(2-aminophenyl)-3-(3,5-difluoro-4-hydroxyphenyl)prop-2-en-1-one]	101%	67.8%	87.4%	60%	38.4%
COc1cccc(/C=C/C(=O)c2ccccc2N)c1 [GM-90131, (E)-1-(2-aminophenyl)-3-(3-methoxyphenyl)prop-2-en-1-one]	101%	37.4%	81.5%	74%	33.2%
Nc1ccccc1C(=O)/C=C/c1cc(O)cc(Br)c1 [GM-90281, (E)-1-(2-aminophenyl)-3-(3-bromo-5-hydroxyphenyl)prop-2-en-1-one]	11.4%	11.1%	77.4%	76.4%	67%
CCOc1cc(F)ccc1/C=C/C(=O)c1ccccc1N [GM-90224, (E)-1-(2-aminophenyl)-3-(2-ethoxy-4-fluorophenyl)prop-2-en-1-one]	108%	99.7%	90.5%	90%	75.8%
Nc1ccccc1C(=O)/C=C/c1ccc(OC(F)(F)F)cc1 [GM-90222, (E)-1-(2-aminophenyl)-3-(4-(trifluoromethoxy)phenyl)prop-2-en-1-one]	109%	92%	40.7%	31.3%	28.9%

— patent US20240139125A1 (INDUSTRIAL COOPERATION FOUNDATION JEONBUK NATIONAL …, priority 2020, published 2024)
